The results in this text go back to patent US11021481B2, “Substituted isoindolin-1-ones and 2,3-dihydro-1h-pyrrolo[3,4-c]pyridin-1-ones as HPK1 antagonists” (Nimbus Saturn, Inc., priority 2019, dated 2021).

Molecules are shown by their SMILES.

Chain of HPK1 (Q92918 whole entry): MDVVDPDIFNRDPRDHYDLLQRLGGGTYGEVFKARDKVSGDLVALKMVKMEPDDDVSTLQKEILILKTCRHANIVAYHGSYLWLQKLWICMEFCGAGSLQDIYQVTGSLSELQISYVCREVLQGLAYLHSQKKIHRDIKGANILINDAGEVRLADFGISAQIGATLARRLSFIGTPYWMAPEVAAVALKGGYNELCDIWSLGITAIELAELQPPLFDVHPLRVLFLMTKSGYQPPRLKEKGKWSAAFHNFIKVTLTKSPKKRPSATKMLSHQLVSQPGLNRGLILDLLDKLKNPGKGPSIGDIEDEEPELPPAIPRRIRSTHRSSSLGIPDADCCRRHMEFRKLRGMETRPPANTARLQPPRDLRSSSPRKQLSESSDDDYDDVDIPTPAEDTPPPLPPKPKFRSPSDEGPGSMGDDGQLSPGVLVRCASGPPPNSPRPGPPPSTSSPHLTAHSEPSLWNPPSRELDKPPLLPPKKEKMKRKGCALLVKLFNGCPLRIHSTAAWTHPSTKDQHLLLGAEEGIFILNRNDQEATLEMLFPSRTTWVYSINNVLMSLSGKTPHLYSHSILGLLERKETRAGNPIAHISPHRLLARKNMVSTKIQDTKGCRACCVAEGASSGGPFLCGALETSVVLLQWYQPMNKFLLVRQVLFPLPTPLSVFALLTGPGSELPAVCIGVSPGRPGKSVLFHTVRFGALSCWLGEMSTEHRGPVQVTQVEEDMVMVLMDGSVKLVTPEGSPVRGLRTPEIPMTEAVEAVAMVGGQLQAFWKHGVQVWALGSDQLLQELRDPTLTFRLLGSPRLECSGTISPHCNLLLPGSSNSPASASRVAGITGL

This assay concerns the target HPK1 (Homo sapiens (Human), UniProt Q92918). The experiment in a line: HPK1 biochemical enzyme assay (microfluidic mobility shift assay). As to conditions: 1.5 nM HPK1, ATP 1 mM final, 30 min preincubation, 60 min at RT, Caliper EZ Reader; read-out: HPK1 1000UMATP caliper IC50. As to the method: HPK1 biochemical enzyme assay: HPK1 enzyme inhibition was measured using a microfluidic mobility shift assay. […] Test compounds were titrated in ten point curves (top final assay concentration 3 μM), and preincubated with enzyme/substrate mix for 30 min prior to initiation of the reaction by addition of ATP (1 mM final concentration) and substrate (1 μM final concentration; Carna Biosciences) diluted in assay buffer supplemented by MgCl2 (final assay concentration of 5 mM). Following 60 min incubation at RT, the reaction was terminated by addition of 60 µl/well termination buffer (Carna Biosciences) and signal determination using aCaliper EZ Reader (Perkin Elmer, UK).
The compound numbers correspond to the compound numbers in Table 1.
With `COCC1CN(c2ccc(Nc3ccc(-c4ncnc5c4ccn5C)c4c3C(=O)NC4)nc2)CCO1` (stereo in doubt) [I-650, (S)-7-((5-(2-(methoxymeth-yl)morpho-lino)pyridin-2-yl)amino)-4-(7-methyl-7H-pyrrolo[2,3-d|pyrimidin-4-yl)isoindolin-1-one], the concentration for half-maximal inhibition (IC50) is less than 100 nM.

With `CN1CC(O)(C2CCCN(c3ccc(Nc4ccc(-c5cnc6cc(F)ccn56)c5c4C(=O)NC5)nc3)C2)C1` (stereo in doubt) [I-678, (R)-4-(7-fluoroimidazo [1,2-a]pyridin-3-yl)-7-((5-(3-(3-hydroxy-1-methylazetidin-3-yl)piperidin-1-yl)pyridin-2-yl)amino)isoin-dolin-1-one], the IC50 was less than 100 nM.

Consider `CN1CC(O)(C2CCCN(c3ccc(Nc4ccc(-c5cnc6cc(F)ccn56)c5c4C(=O)NC5)nc3)C2)C1` (stereo in doubt) [I-679, (S)-4-(7-fluoroimidazo [1,2-a]pyridin-3-yl)-7-((5-(3-(3-hydroxy-1-methylazetidin-3-yl)piperidin-1-yl)pyridin-2-yl)amino)isoin-dolin-1-one], for which the half-maximal inhibitory concentration (IC50) was less than 100 nM.

Regarding `CN(C)C1(C2CN(c3ccc(Nc4ccc(-c5cnc6cc(F)ccn56)c5c4C(=O)NC5)nc3)CCO2)CC1` (stereo in doubt) [I-686, (R)-7-((5-(2-(1-(dimethylami-no)cyclopropyl)morphoIino)py-ridin-2-yl)amino)-4-(7-fluoroimidazo [1,2-a]pyridin-3-yl)isoindolin-1-one], the 50% inhibitory concentration (IC50) is less than 100 nM.

In the case of `CN(C)C1(C2CN(c3ccc(Nc4ccc(-c5cnc6cc(F)ccn56)c5c4C(=O)NC5)nc3)CCO2)CC1` (stereo in doubt) [I-687, (S)-7-((5-(2-(1-(dimethylami-no)cyclopropyl)morpholino)py-ridin-2-yl)amino)-4-(7-fluoroimidazo [1,2-a]pyridin-3-yl)isoindolin-1-one], the IC50 is less than 100 nM.

Consider `CN(C)Cc1nc(Nc2cnc(-c3ccnc4c3ccn4C)c3c2C(=O)NC3)ccc1[C@@H]1CCOC1` (stereo in doubt) [I-707], for which the IC50 is less than 100 nM.

Regarding `Cc1cccc2c(-c3ccc(Nc4ccc(C5CCOC5)c(CN(C)C)n4)c4c3CNC4=O)cnn12` (stereo in doubt) [I-710, (R)-7-((6-((dimethylamino)-methyl)-5-(tetrahydrofuran-3-yl)pyridin-2-yl)amino)-4-(7-methylpyra-zolo[1,5-a]pyridin-3-yl)isoindolin-1-one], the IC50 is less than 100 nM.

As for `COCC1CN(c2ccc(Nc3ccc(-c4cnc5cc(F)ccn45)c4c3C(=O)NC4)nc2CN(C)C)CCO1` (stereo in doubt) [I-712, (S)-7-((6-((dimethylamino)-methyl)-5-(2-(methoxymeth-yl)morpho-lino)pyridin-2-yl)amino)-4-(7-fluoroimidazo [1,2-a]pyridin-3-yl)isoindolin-1-one], the 50% inhibitory concentration (IC50) was less than 100 nM.

As for `O=C1NCc2c(-c3cnc4cc(F)ccn34)ccc(Nc3ccc([C@H]4CCOC4)c(CN4CCOCC4)n3)c21` (stereo in doubt) [I-720, (SMK7-fluoroimidazo [1,2-a]pyridin-3-yl)-7-((6-(morpholinomethyl)-5-(tetrahydrofuran-3-yl)pyridin-2-yl)amino)isoin-dolin-1-one], the IC50 was less than 100 nM.

For the compound `O=C1NCc2c(-c3cnc4cc(F)ccn34)ccc(Nc3ccc(C4CCOC4)c(CN4CCOCC4)n3)c21` (stereo in doubt) [I-721, (R)-4-(7-fluoroimidazo [1,2-a]pyridin-3-yl)-7-((6-(morpliolinomethyl)-5-(tetrahydrofuran-3-yl)pyridin-2-yl)amino)isoin-dolin-1-one], the IC50 is less than 100 nM.

In the case of `CNCc1nc(Nc2ccc(-c3cnc4cc(F)ccn34)c3c2C(=O)NC3)ccc1C1CCOC1` (stereo in doubt) [I-722, (S)-4-(7-fluoroimidazo [1,2-a]pyridin-3-yl)-7-((6-((methyl-amino)methyl)-5-(tetrahydrofuran-3-yl)pyridin-2-yl)amino)isoin-dolin-1-one], the IC50 is less than 100 nM.

What is called IC50 is the concentration that gives 50% inhibition.
